Consider six cell lines from the supplement of paper PMC10307832.

Common to all, as to assay: relative viability (nuclei count vs DMSO), 5 days (fraction); higher = more cells survive
Compound in assay [1]: N=C1NC(=O)/C(=C/c2ccc(O)cc2)S1 [Mirin] + CC(C)C[C@H](NC(=O)[C@H](Cc1ccccc1)NC(=O)c1cnccn1)B(O)O [Bortezomib] (partner 0.002 µM)
The method, boiled down:
(§1)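 Each reported value is a median over duplicate plates. It expresses relative viability: treated-well nuclei count divided by vehicle-well nuclei count. Lung cancer cell lines in 1536-well plates were dosed by pin tool a day after seeding, alone with one drug or with a fixed anchor-drug dose plus five library-drug doses (not always all listed) in √10 steps, and nuclei were counted after 5 days.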

Compound in assay [2]: CCC1=CN=CN=C1N2CCN(CC2)CC3=NC4=C(N3)C=C(C=C4)C(F)(F)F + COc1cccc2cc(-c3nc([C@H]4CC[C@H](C(=O)O)CC4)n4ncnc(N)c34)[nH]c12 [OSI-027] (partner 0.5 µM)
The gist of the method:
as §1

Compound in assay [3]: CCC1=CN=CN=C1N2CCN(CC2)CC3=NC4=C(N3)C=C(C=C4)C(F)(F)F + N=C(N)NC(=N)NCCc1ccccc1 [Phenformin] (partner 250 µM)
The gist of the method: as §1

Compound in assay [4]: CCn1c(-c2nonc2N)nc2cnc(Oc3cccc(NC(=O)c4ccc(OCCN5CCOCC5)cc4)c3)cc21 + CC(C)C[C@H](NC(=O)[C@H](Cc1ccccc1)NC(=O)c1cnccn1)B(O)O [Bortezomib] (partner 0.002 µM)
The method, boiled down:
as §1

For NCI-H2087, the relative viability in assay [1] (first compound 0.25 µM) was found to be 0.885; in assay [1] (first compound 0.7906 µM), 0.826; in assay [1] (first compound 2.5 µM) it was 0.87; in assay [1] (first compound 7.906 µM), 0.924; in assay [1] (first compound 25 µM), 1.16; in assay [2] (first compound 0.04 µM), 0.584. For the same cell line, the relative viability in assay [2] (first compound 0.1265 µM) was 0.56; in assay [2] (first compound 0.4 µM) it was 0.385; in assay [2] (first compound 1.265 µM), 0.451; in assay [2] (first compound 4 µM) it was 0.5; in assay [3] (first compound 0.04 µM), 0.499; in assay [3] (first compound 0.1265 µM), 0.465. The relative viability is 0.448 in assay [3] (first compound 0.4 µM); 0.467 in assay [3] (first compound 1.265 µM); 0.496 in assay [3] (first compound 4 µM); 0.591 in assay [4] (first compound 0.1265 µM); 0.778 in assay [4] (first compound 0.4 µM); 0.473 in assay [4] (first compound 1.265 µM). Further, the relative viability in assay [4] (first compound 4 µM) worked out at 0.459.
For NCI-H2126, the relative viability in assay [1] (first compound 0.25 µM) came out at 1.12; in assay [1] (first compound 0.7906 µM), 1.11; in assay [1] (first compound 2.5 µM) it was 1.12; in assay [1] (first compound 7.906 µM) it was 1.07; in assay [1] (first compound 25 µM), 1.2; in assay [2] (first compound 0.04 µM), 0.759. Further, the relative viability in assay [2] (first compound 0.1265 µM) stood at 0.688; in assay [2] (first compound 0.4 µM) it was 0.624; in assay [2] (first compound 1.265 µM), 0.628; in assay [2] (first compound 4 µM), 0.708; in assay [3] (first compound 0.04 µM), 0.524; in assay [3] (first compound 0.1265 µM), 0.533. Also, the relative viability in assay [3] (first compound 0.4 µM) turned out to be 0.521; in assay [3] (first compound 1.265 µM), 0.515; in assay [3] (first compound 4 µM) it was 0.581; in assay [4] (first compound 0.04 µM) it was 1.14; in assay [4] (first compound 0.1265 µM), 1.13; in assay [4] (first compound 0.4 µM), 0.918. Moreover, the relative viability in assay [4] (first compound 1.265 µM) and in assay [4] (first compound 4 µM) was 1.08 each time.
As for NCI-H2228, the relative viability in assay [1] (first compound 0.25 µM) is 0.983; in assay [1] (first compound 0.7906 µM) it was 1.04; in assay [1] (first compound 2.5 µM), 1; in assay [1] (first compound 7.906 µM), 0.919; in assay [1] (first compound 25 µM) it was 1.2; in assay [2] (first compound 0.04 µM) it was 0.535. The relative viability in assay [2] (first compound 0.1265 µM) was 0.633; in assay [2] (first compound 0.4 µM), 0.487; in assay [2] (first compound 1.265 µM), 0.635; in assay [2] (first compound 4 µM), 0.656; in assay [3] (first compound 0.04 µM), 0.313; in assay [3] (first compound 0.1265 µM), 0.341. The relative viability in assay [3] (first compound 0.4 µM) came to 0.286; in assay [3] (first compound 1.265 µM), 0.312; in assay [3] (first compound 4 µM) it was 0.399; in assay [4] (first compound 0.04 µM), 1.12; in assay [4] (first compound 0.1265 µM), 0.897; in assay [4] (first compound 0.4 µM) it was 0.921. Further, the results for the relative viability in assay [4] (first compound 1.265 µM) and in assay [4] (first compound 4 µM) were 0.591 and 0.839, respectively.
Turning to NCI-H2347, the relative viability in assay [1] (first compound 0.25 µM) stood at 0.824; in assay [1] (first compound 0.7906 µM) it was 1.02; in assay [1] (first compound 2.5 µM) it was 1.32; in assay [1] (first compound 7.906 µM) it was 0.639; in assay [1] (first compound 25 µM), 1.01; in assay [2] (first compound 0.04 µM), 0.471. For the same cell line, the relative viability in assay [2] (first compound 0.1265 µM) was determined as 0.446; in assay [2] (first compound 0.4 µM), 0.374; in assay [2] (first compound 1.265 µM), 0.262; in assay [2] (first compound 4 µM), 0.406; in assay [3] (first compound 0.04 µM), 0.314; in assay [3] (first compound 0.1265 µM), 0.397. Further, the relative viability was 0.498 in assay [3] (first compound 0.4 µM); 0.243 in assay [3] (first compound 1.265 µM); 0.304 in assay [3] (first compound 4 µM); 1.1 in assay [4] (first compound 0.04 µM); 0.959 in assay [4] (first compound 0.1265 µM); 0.792 in assay [4] (first compound 0.4 µM). Besides, the relative viability turned out to be 0.49 in assay [4] (first compound 1.265 µM) and 0.649 in assay [4] (first compound 4 µM).
As for NCI-H2405, the relative viability in assay [1] (first compound 0.25 µM) stood at 1.02; in assay [1] (first compound 0.7906 µM) it was 0.765; in assay [1] (first compound 2.5 µM) it was 0.967; in assay [1] (first compound 7.906 µM), 0.972; in assay [1] (first compound 25 µM), 1.01; in assay [2] (first compound 0.04 µM), 0.723. Besides, the relative viability turned out to be 0.614 in assay [2] (first compound 0.1265 µM); 0.669 in assay [2] (first compound 0.4 µM); 0.717 in assay [2] (first compound 4 µM); 0.418 in assay [3] (first compound 0.04 µM); 0.401 in assay [3] (first compound 0.1265 µM); 0.419 in assay [3] (first compound 0.4 µM). The relative viability in assay [3] (first compound 4 µM) came out at 0.492; in assay [4] (first compound 0.04 µM) it was 1.05; in assay [4] (first compound 0.1265 µM), 0.744; in assay [4] (first compound 0.4 µM) it was 0.348; in assay [4] (first compound 1.265 µM), 0.277; in assay [4] (first compound 4 µM), 0.973.
Consider NCI-H3122, for which the relative viability in assay [1] (first compound 0.25 µM) turned out to be 1.06; in assay [1] (first compound 0.7906 µM), 0.985; in assay [1] (first compound 2.5 µM), 0.986; in assay [1] (first compound 7.906 µM), 1.1; in assay [1] (first compound 25 µM) it was 1.1; in assay [2] (first compound 0.04 µM) it was 1.02. In addition, the relative viability in assay [2] (first compound 0.1265 µM) is 0.974; in assay [2] (first compound 0.4 µM), 0.937; in assay [2] (first compound 1.265 µM), 0.938; in assay [2] (first compound 4 µM), 1.17; in assay [3] (first compound 0.04 µM) it was 0.372; in assay [3] (first compound 0.1265 µM), 0.362. The relative viability came to 0.318 in assay [3] (first compound 0.4 µM); 0.359 in assay [3] (first compound 1.265 µM); 0.342 in assay [3] (first compound 4 µM); 1.05 in assay [4] (first compound 0.04 µM); 1.01 in assay [4] (first compound 0.1265 µM); 0.93 in assay [4] (first compound 0.4 µM). Besides, the relative viability in assay [4] (first compound 1.265 µM) was 0.691; in assay [4] (first compound 4 µM) it was 0.738.
